The NIST ThermoML archive (doi:10.1016/j.tca.2012.04.033)

Tests used:
[1] = Crystal; DTA
[2] = refractive index (Na D-line) (dimensionless); xn = mol fraction of the nth substance listed; settings: 101 kPa, Liquid, Standard Abbe refractometry
[3] = xn = mol fraction of the nth substance listed; settings: 101 kPa, Liquid, Vibrating tube method

C[Si](O[Si](C)(c1ccccc1)c1ccccc1)(c1ccccc1)c1ccccc1 [1,3-dimethyl-1,1,3,3-tetraphenyldisiloxane]
Settings | Normal melting temperature [°C]
[1] | 49.70

C[Si](O[Si](C)(c1ccccc1)c1ccccc1)(c1ccccc1)c1ccccc1 [1,3-dimethyl-1,1,3,3-tetraphenyldisiloxane] + CC(C)O
303.15 K
Settings | mass density, x1 = 0.00125 [kg/m3] | mass density, x1 = 0.00359 [kg/m3] | mass density, x1 = 0.00759 [kg/m3] | mass density, x1 = 0.01218 [kg/m3] | mass density, x1 = 0.01284 [kg/m3] | refractive index, x1 = 0.00125 | refractive index, x1 = 0.00359 | refractive index, x1 = 0.00759 | refractive index, x1 = 0.01218 | refractive index, x1 = 0.01284
[2] | – | – | – | – | – | 1.37416 | 1.37721 | 1.38094 | 1.38528 | 1.38568
[3] | 778.65 | 783.03 | 788.42 | 794.61 | 795.14 | – | – | – | – | –

C[Si](O[Si](C)(c1ccccc1)c1ccccc1)(c1ccccc1)c1ccccc1 [1,3-dimethyl-1,1,3,3-tetraphenyldisiloxane] + CCCO
303.15 K
Settings | mass density, x1 = 0.00161 [kg/m3] | mass density, x1 = 0.00428 [kg/m3] | mass density, x1 = 0.00956 [kg/m3] | mass density, x1 = 0.01076 [kg/m3] | mass density, x1 = 0.01339 [kg/m3] | refractive index, x1 = 0.00161 | refractive index, x1 = 0.00428 | refractive index, x1 = 0.00956 | refractive index, x1 = 0.01076 | refractive index, x1 = 0.01339
[2] | – | – | – | – | – | 1.38273 | 1.38545 | 1.39061 | 1.39176 | 1.39425
[3] | 797.94 | 801.12 | 808.9 | 810.51 | 813.97 | – | – | – | – | –

C[Si](O[Si](C)(c1ccccc1)c1ccccc1)(c1ccccc1)c1ccccc1 [1,3-dimethyl-1,1,3,3-tetraphenyldisiloxane] + CCO
298.15 K
Settings | mass density, [3] [kg/m3] | refractive index, [2]
x1 = 0.0009 | 787.37 | 1.36085
x1 = 0.00225 | 789.76 | 1.36263
x1 = 0.00446 | 794.07 | 1.36586
x1 = 0.00667 | 798.07 | 1.36893
x1 = 0.00825 | 801.34 | 1.37139
x1 = 0.01059 | 805.13 | 1.37427
x1 = 0.01252 | 808.66 | 1.37693

C[Si](O[Si](C)(c1ccccc1)c1ccccc1)(c1ccccc1)c1ccccc1 [1,3-dimethyl-1,1,3,3-tetraphenyldisiloxane] + CO
298.15 K
Settings | mass density, x1 = 0.00036 [kg/m3] | mass density, x1 = 0.0009 [kg/m3] | mass density, x1 = 0.0018 [kg/m3] | mass density, x1 = 0.00241 [kg/m3] | mass density, x1 = 0.00364 [kg/m3] | refractive index, x1 = 0.00036 | refractive index, x1 = 0.0009 | refractive index, x1 = 0.0018 | refractive index, x1 = 0.00241 | refractive index, x1 = 0.00364
[2] | – | – | – | – | – | 1.3274 | 1.3287 | 1.33084 | 1.33228 | 1.33509
[3] | 787.68 | 789.17 | 791.71 | 793.31 | 796.57 | – | – | – | – | –

C[Si](O[Si](C)(c1ccccc1)c1ccccc1)(c1ccccc1)c1ccccc1 [1,3-dimethyl-1,1,3,3-tetraphenyldisiloxane] + C[Si]1(C)O[Si](C)(C)O[Si](C)(C)O[Si](C)(C)O1
303.15 K
Settings | mass density, x1 = 0.00724 [kg/m3] | mass density, x1 = 0.01526 [kg/m3] | mass density, x1 = 0.02752 [kg/m3] | mass density, x1 = 0.04184 [kg/m3] | mass density, x1 = 0.05492 [kg/m3] | refractive index, x1 = 0.00724 | refractive index, x1 = 0.01526 | refractive index, x1 = 0.02752 | refractive index, x1 = 0.04184 | refractive index, x1 = 0.05492
[2] | – | – | – | – | – | 1.39358 | 1.39553 | 1.3985 | 1.40193 | 1.40505
[3] | 946.03 | 947.52 | 949.77 | 952.36 | 954.7 | – | – | – | – | –
